Laboratory results published in patent publication US6051605A, “Method of treating psychosis and schizophrenia” (priority 1999, dated 2000).
Counter-ions that a name gives are not always drawn.

Target: T1, human recombinant dopamine D4.2 receptor (Homo sapiens, UniProt P21917, DEL265-296)
T1 construct: expressed in transfected cells; membranes
T1 sequence (P21917 with tags, fused parts or gaps DEL265-296): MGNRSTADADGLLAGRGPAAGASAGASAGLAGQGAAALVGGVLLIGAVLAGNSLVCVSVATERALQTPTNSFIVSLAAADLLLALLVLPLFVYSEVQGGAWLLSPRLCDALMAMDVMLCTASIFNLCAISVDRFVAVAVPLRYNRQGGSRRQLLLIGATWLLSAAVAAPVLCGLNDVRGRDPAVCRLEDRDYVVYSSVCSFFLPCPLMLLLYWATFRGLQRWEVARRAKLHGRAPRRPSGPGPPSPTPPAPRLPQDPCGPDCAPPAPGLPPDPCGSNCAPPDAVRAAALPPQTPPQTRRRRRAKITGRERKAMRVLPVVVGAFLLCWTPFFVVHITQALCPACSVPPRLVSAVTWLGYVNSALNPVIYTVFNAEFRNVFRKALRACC
Test: Receptor binding assay, D4.2 dopamine receptor ([3H]spiperone competition)

Row | Ki [nM] | SMILES
1 | 45.8 | Brc1ccc(OCCCNCCCOc2ccc(Br)cc2)cc1 [Example 4a, Bis-[3-(4-bromo-phenoxy)-propyl]-amine hydrochloride]
2 | 4.4 | O=[N+]([O-])c1ccc(OCCNCCCOc2ccccc2)cc1 [Example 2a, [2-(4-Nitro-phenoxy)-ethyl]-(3-phenoxy-propyl)-amine hydrochloride]
3 | 10.7 | N#Cc1ccc(OCCNCCCOc2ccccc2)cc1 [Example 6b, 4-[2-(3-Phenoxy-propylamino)-ethoxy]-benzonitrile]
4 | 1.3 | Cc1ccc(OCCNCC(O)COc2ccccc2)cc1 (stereo not shown) [Example 16g, 1-Phenoxy-3-(2-p-tolyloxy-ethylamino)-propan-2-ol]
5 | 5.4 | COc1ccc(OCCNCCCOc2ccccc2)cc1 [Example 9d, [2-(4-Methoxy-phenoxy)-ethyl]-(3-phenoxy-propyl)-amine hydrochloride]
6 | 11.9 | CCOc1ccc(OCCNCCCOc2ccccc2)cc1 [Example 2c, [2-(4-Ethoxy-phenoxy)-ethyl]-(3-phenoxy-propyl)-amine hydrochloride]
7 | 0.96 | Cc1ccc(OCCNCCCOc2ccc(F)cc2)cc1 [Example 4c, [3-(4-Fluoro-phenoxy)-propyl]-(2-p-tolyloxy-ethyl)-amine hydrochloride]
8 | 1.2 | Cc1ccc(OCCNCCCSc2ccccc2)cc1 [Example 4g, (3-Phenylsulfanyl-propyl)-(2-p-tolyloxy-ethyl)-amine hydrochloride]
9 | 11.4 | Cc1ccc(OCCCNCCOc2ccc(C)cc2)cc1 [Example 3, (2-p-Tolyloxy-ethyl)-(3-p-tolyloxy-propyl)-amine hydrochloride]
10 | 103 | Cc1ccc(OCCNCCOc2ccccc2)cc1 [Example 6d, (2-Phenoxy-ethyl)-(2-p-tolyloxy-ethyl)-amine hydrochloride]
11 | 6.1 | Brc1ccc(OCCCNCCOc2ccccc2)cc1 [Example 16i, [3-(4-Bromo-phenoxy)-propyl]-(2-phenoxy-ethyl)-amine hydrochloride]
12 | 2.7 | Cc1ccc(OCCCNCCOc2ccccc2)cc1 [Example 3f, (2-Phenoxy-ethyl)-(3-p-tolyloxy-propyl)-amine hydrochloride]
13 | 33.1 | Clc1ccc(SCCNCCCOc2ccccc2)cc1 [Example 4e, [2-(4-Chloro-phenylsulfanyl)-ethyl]-(3-phenoxy-propyl)-amine hydrochloride]
14 | 4.7 | Cc1ccc(CCCNCCCOc2ccccc2)cc1 [Example 5, (3-Phenoxy-propyl)-(3-p-tolyl-propyl)-amine hydrochloride]
15 | 30 | Cc1ccc(SCCNCCCOc2ccccc2)cc1 [Example 4d, (3-Phenoxy-propyl)-(2-p-tolylsulfanyl-ethyl)-amine hydrochloride]
16 | 20.9 | CC(C)(C)c1ccc(OCCNCCCOc2ccccc2)cc1 [Example 2b, [2-(4-tert-Butyl-phenoxy)-ethyl]-(3-phenoxy-propyl)-amine hydrochloride]

Row | Ki [nM] | SMILES
17 | 2.1 | OC(CNCCOc1ccc(Cl)cc1)COc1ccccc1 (stereo not shown) [Example 16h, 1-[2-(4-Chloro-phenoxy)-ethylamino]-3-phenoxy-propan-2-ol]
18 | 3.1 | Oc1ccc(OCCNCCCOc2ccccc2)cc1 [Example 11, 4-[2-(3-Phenoxy-propylamino)-ethoxy]-phenol hydrobromide]
19 | > 1000 | O=C(O)c1ccc(OCCNCCCOc2ccccc2)cc1 [Example 15, 4-[2-(3-Phenoxy-propylamino)-ethoxy]-benzoic acid hydrochloride]
20 | 383 | c1ccc(OCCCNCCOc2ccc(-c3ccccc3)cc2)cc1 [Example 2e, [2-(Biphenyl-4-yloxy)-ethyl]-(3-phenoxy-propyl)-amine hydrochloride]
21 | 1.2 | Fc1ccc(OCCCNCCOc2ccccc2)cc1 [Example 4, [3-(4-Fluoro-phenoxy)-propyl]-(2-phenoxy-ethyl)-amine hydrochloride]
22 | 0.2 | Cc1ccc(OCCNCCCOc2ccccc2)cc1 [Example 2, (3-Phenoxy-propyl)-(2-p-tolyloxy-ethyl)-amine hydrochloride]
23 | 5.6 | Cc1ccc(OCCCNCCOc2ccc(Cl)cc2)cc1 [Example 3e, [2-(4-Chloro-phenoxy)-ethyl]-(3-p-tolyloxy-propyl)-amine hydrochloride]
24 | 0.84 | Fc1ccc(OCCCNCCOc2ccc(Cl)cc2)cc1 [Example 4h, [2-(4-Chloro-phenoxy)-ethyl]-[3-(4-fluoro-phenoxy)-propyl]-amine hydrochloride]
25 | 1.7 | Clc1ccc(OCCNCCCSc2ccccc2)cc1 [Example 4f, [2-(4-Chloro-phenoxy)-ethyl]-(3-phenylsulfanyl-propyl)-amine hydrochloride]
26 | 136 | Cc1ccc(OCCCNCCCOc2ccc(C)cc2)cc1 [Example 4b, Bis(3-p-tolyloxy-propyl)-amine hydrochloride]
27 | 74.9 | Cc1ccc(OCCNCCOc2ccc(C)cc2)cc1 [Example 6e, Bis-(2-p-tolyloxy-ethyl)-amine hydrochloride]
28 | 37.8 | Clc1ccc(OCCNCCCOc2ccc(Br)cc2)cc1 [Example 3g, [3-(4-Bromo-phenoxy)-propyl]-[2-(4-chloro-phenoxy)-ethyl]-amine hydrochloride]
29 | 1330 | COc1ccc(OCCCNCCCOc2ccc(OC)cc2)cc1 [Example 1q, Bis[3-(4-methoxy-phenoxy)-propyl]-amine hydrochloride]
30 | 10.9 | COC(=O)c1ccc(OCCNCCCOc2ccccc2)cc1 [Example 6a, 4-[2-(3-Phenoxy-propylamino)-ethoxy]-benzoic acid methyl ester]
31 | 26.9 | Cc1ccc(OCCNCCCOc2ccc(Br)cc2)cc1 [Example 3b, [3-(4-Bromo-phenoxy)-propyl]-(2-p-tolyloxy-ethyl)-amine hydrochloride]
